Assay results taken from patent US20190022114A1, “METHODS AND COMPOSITIONS FOR REDUCING BODY WEIGHT AND INCREASING GUT MOTILITY” (priority 2016, published 2019).

Legend:
[1] = test system: LEPR (Leptin Receptor) mutants; assay: Weight loss and fat loss effect of D-ribose in mouse obesity model; type: in vivo; settings: 48 days
Method: Classic obesity model LEPR (Leptin Receptor) mutants (Age 42 day, male) and wild-type FVB strain mice were used in the testing.
D-ribose was feed to mice in D-ribose water solution at concentrations indicated (75 mg/ml and 50 mg/ml). Control animals were feed with water. All animals were fed on normal diet. There was no restriction on the amount of liquid or food consumption.
The liquid and food consumption were measured at 4 day intervals. The actual D-ribose consumption for each animal was calculated based on its liquid intake volume.
Mouse body fat was measured using MiniSpec NMR Analyzer.
P-values were calculated using t-test (unpaired, 2 tails) for data points after 48 days of treatment.
Test results were shown in FIG. 1 and FIG. 2, wherein Square (▪) represents the treatment group, and Circle (●) represents control group. Classic obesity model LEPR (Leptin Receptor) mutants (Age 42 day, male) were used in the testing. The control group was fed with water. Animals were fed on normal diet.

C57BL/6 mice = assay: Whole gut transit time (carmine gavage); type: in vivo, mouse; settings: 0.5 ml 75 mg/ml oral gavage, p value=0.004
Method: D-ribose was administered to C57BL/6 mice of 8 weeks old. Before administering, mice were fasted for 18 hours with free access to water and housed on a mesh plate without bedding. The mice were orally fed with 0.5 ml carmine solution (6% carmine in 0.5% methylcellulose) containing either 75 mg/ml D-ribose or xylose. After oral force gavage, mice were returned to individually housed mesh bottom cages, which were placed on a white sheet. Whole gut transit time is the time taken from carmine meal gavage to the appearance of the first red fecal pellets.

Wistar rats = settings: 13 weeks, cited from earlier work

O=C[C@H](O)[C@H](O)[C@H](O)CO [D-ribose]
fat gain (body fat measurement) ([1]; 50 mg/ml in water, 20.59 gram/kg/day, data not shown): reduced fat gain but not statistically significant | weight gain vs control animals ([1]; 50 mg/ml in water, 20.59 gram/kg/day, obese LEPR mutant male mice, p-value 0.001): statistically significantly decreased weight gain | body fat (NMR) vs control animals ([1]; 75 mg/ml in water, 30.03 gram/kg/day, obese LEPR mutant male mice, p-value 0.00015): fat loss | body weight vs control animals ([1]; 75 mg/ml in water, 30.03 gram/kg/day, obese LEPR mutant male mice, p-value 0.01): statistically significant weight loss | gut transition time vs xylose control (C57BL/6 mice): shortened gut transition time | NOAEL, females (Wistar rats; female rats, 5% in diet): 4.4 g/kg body weight/day | NOAEL, males (Wistar rats; male rats, 5% in diet): 3.6 g/kg body weight/day | no observed adverse effect level (NOAEL), concentration in the diet (Wistar rats; rats, in diet): 5% | effect at up to 20% of diet (Wistar rats; rats, up to 20% of diet (15.0 and 15.7 g/kg body weight/day males and females)): nutritional but not toxicological effect
